The text below walks through data of publication PMC8878324, “Evaluation of New Antimicrobial Agents Based on tris(1H-Indol-3-yl)methylium Salts: Activity, Toxicity, Suppression of Experimental Sepsis in Mice” (Pharmaceuticals, 2022).

Values after ≈ are worked out from the molar mass of the structure shown.

A short description of series [1]: Cytotoxic activity, MTT assay. To be noted: human, HPF-hTERT. Type of series: cell-based, human. Here is the method: The cytotoxic activity of the compounds was evaluated on the healthy donor (postnatal) human fibroblasts immortalized by transfection of the hTERT gene of the catalytic component of telomerase (hereinafter HPF-hTERT) that were obtained from N.N. Blokhin Russian Cancer Research Center. HFC-hTERT cells were cultured in Dulbecco’s modified medium (DMEM) containing 2 mM of L-glutamine, 10% fetal calf serum, 100 U/mL of penicillin and 100 μg/mL of streptomycin. Incubation was performed in a humidified atmosphere of 5% CO2 at 37 °C. In the experiment, we used cells in the logarithmic growth phase. To study the cytotoxicity of compounds, 190 μL of cell suspension (~2 thousand cells per well) was added to the wells of 96-well plates and incubated for 16 h. On the day of the experiment, serial dilutions of the test compounds were prepared in DMSO (stock solution—10 mM in 100% DMSO). Further dilutions were conducted in a nutrient medium. The final concentrations of compounds in the experiment were in a concentration range from 0.0025 to 50 μM. The final concentration of DMSO was 1% or less. Each concentration was presented in 3 repetitions. […] The cells were incubated with the test compounds for 72 h. After the end of incubation, 20 μL of MTT solution in growth medium (5 mg/mL) was added to the wells. The cells were incubated for 2 h until a purple color developed, after which the culture medium was removed. DMSO was added to the wells, and the sediment was suspended. Optical density was measured with a Thermo Scientific Multiscan FC spectrophotometer at 570 nm. The values of optical density in wells without addition of test compounds (control) were taken as 100% cell survival. The percentage of survival of cells incubated with the test compounds was calculated by dividing the optical density in the corresponding well (average of 3 independent measurements) by the optical density in the control. The concentration of drugs causing 50% cell death (IC50) was evaluated and expressed in μg/mL.

For series [2], the system named is Aspergillus niger ATCC 16404. In words: MIC by broth microdilution (RPMI 1640). Type of series: cell-based. To be noted: ATCC16404. Here is the method: (§1) We have tested the antimicrobial activity in vitro of over 100 tris(indolyl)methane derivatives against 16 strains of Gram-positive, Gram-negative bacteria and fungi including either sensitive or drug-resistant strains from ATCC, as well as resistant clinical isolates from the culture collection of the Laboratory for Control of Hospital Infections (Sechenov University, Moscow, Russia). The minimum inhibitory concentrations (MICs) were determined by the microdilution method in a cation-adjusted Müller–Hinton medium for bacteria and in a liquid culture medium RPMI 1640 with L-glutamine without sodium bicarbonate for fungi in accordance with the requirements of the Institute of Clinical and Laboratory Standards (CLSI/NCCLS). […] As a rule, their activity against Gram-negative bacteria was usually not that high. […] For comparison, the antimicrobial activity of prototype 4 is shown. The antibacterial antibiotic levofloxacin and the antifungal amphotericin B were used as reference drugs (Table 1).
(§2) The synthesis of compounds and the scheme of their preparation and purification, as well as physicochemical characteristics, were described earlier. To evaluate the biological activity in vitro, the compounds were dissolved in DMSO at a concentration of 2.0–6.4 mg/mL, followed by preparation of two-fold dilutions in the same solvent, if necessary. The solutions were further diluted in an aqueous medium for the final concentration of DMSO not to exceed 1%, and the concentration of the compounds ranged from 64.0 to 0.13 μg/mL. To study compounds in vivo, solutions for intravenous administration in 5% glucose solution were prepared. Solutions were sterilized by filtration through 0.22 µm filters (Millipore, Burlington, MA, USA).
(§3) Strains of Gram-positive, Gram-negative bacteria and fungi including sensitive or drug-resistant strains from ATCC, as well as resistant clinical isolates from the culture collection of the Laboratory for Control of Hospital Infections (Sechenov University, Moscow, Russia), were used. Clinical isolates of Gram-positive bacteria Staphylococcus aureus 5 (MRSA), Staphylococcus aureus 10, Staphylococcus aureus 100KC (MRSA), Staphylococcus epidermidis 533, Staphylococcus haemoliticus 585 and Enterococcus faecium 569, as well as collection cultures of Gram-positive bacteria Staphylococcus aureus ATCC 700699, Staphylococcus aureus ATCC 25923, Staphylococcus aureus ATCC 3798 and collection cultures of Gram-negative bacteria Escherichia coli ATCC 25922, Klebsiella pneumoniae ATCC 13883, Proteus vulgaris ATCC 13315, Salmonella cholerasuis ATCC 14028, Pseudomonas aeruginosa ATCC 27853 and collection cultures of the yeast Candida albicans ATCC 14053 and the fungi Aspergillus niger ATCC 16404 were used. To grow the microorganisms, we used Trypticase Soy Agar (TSA, Sigma-Aldrich Co., Burlington, MA, USA). Trypticase Soy Agar, BBL, was used for cultivation of Staphylococcus spp. and E. coli. For cultivation of Enterococcus spp. and P. aeruginosa we used a ready-made dry medium Columbia Agar Base, BBL. The media were sterilized by autoclaving at 121 °C for 15 min. Yeast culture C. albicans was grown on Sabouraud agar (peptone—10 g, glucose—40 g, agar—20 g, distilled water—1 L, pH 6.0), and filamentous fungi A. niger was grown on potato–glucose agar (potatoes—200 g, glucose—20 g, agar—15 g, distilled water—1 L, pH 5.5–6.0).
(§4) To determine the antibacterial effect, a liquid Müller–Hinton medium (Becton, Dickinson and Company, Cockeysville, MD, USA) was used; to determine the effect of compounds on fungi we used RPMI 1640 medium with L-glutamine, without sodium bicarbonate, which was prepared from a dry medium (ICN Biomedicals Inc., Costa Mesa, CA, USA) by dilution in distilled water, subsequent buffering with 0.165 M of morpholinepropanesulfonic acid (MOPS, Acros Organics B.V.B.A., Morris Plains, NJ, USA) and adjusting the pH of the medium to 7.0 by adding 1 N of NaOH solution. […]

Series [3] has as its system Candida albicans ATCC 14053. In words: MIC by broth microdilution (RPMI 1640). Type of series: cell-based. To be noted: ATCC14053. Here is the method: as §1, §2, §3, §4
The subject of series [4] is yeast (Candida albicans) and fungi (Aspergillus niger). Put plainly: Antifungal activity. In kind it is cell-based. The note with it: Candida albicans and Aspergillus niger. The protocol: as §1
(§5) The minimum inhibitory concentrations (MIC) for Gram-positive and Gram-negative bacteria were determined by two-fold serial microdilution method in a cation-adjusted Müller–Hinton medium for bacteria and in a liquid culture medium RPMI 1640 with L-glutamine without sodium bicarbonate for fungi in accordance with the requirements of the Institute of Clinical and Laboratory Standards (CLSI/NCCLS). The antibacterial antibiotic levofloxacin and the antifungal antibiotic amphotericin B from Sigma-Aldrich were used as reference drugs.

In series [5] the test system is Escherichia coli ATCC 25922. In words: MIC by broth microdilution. In kind it is cell-based. The note with it: ATCC25922. The protocol: as §1, §2, §3, §4
The subject of another series is Enterococcus faecium 569. Put plainly: MIC by broth microdilution. Type of series: cell-based. To be noted: Enterococcus faecium 569. The protocol: as §1, §2, §3, §4
For series [6], the system named is Staphylococcus aureus ATCC 3798. Put plainly: MIC by broth microdilution. In kind it is cell-based. To be noted: ATCC3798. The protocol:
as §1, §2, §3, §4

The subject of series [7] is Staphylococcus aureus ATCC 25923. In words: MIC by broth microdilution. In kind it is cell-based. The note with it: ATCC25923. Here is the method:
as §1, §2, §3, §4

Series [8] has as its system Staphylococcus haemoliticus 585. In words: MIC by broth microdilution. In kind it is cell-based. To be noted: Staphylococcus haemoliticus 585. The protocol: as §1, §2, §3, §4
For a further series, the system named is Staphylococcus aureus 5. Put plainly: MIC by broth microdilution. In kind it is cell-based. To be noted: Staphylococcus aureus 5 (MRSA). The protocol:
as §1, §2, §3, §4

Another series concerns Staphylococcus aureus 10. In words: MIC by broth microdilution. In kind it is cell-based. The protocol: as §1, §2, §3, §4
Series [9] concerns Pseudomonas aeruginosa ATCC 27853. In words: MIC by broth microdilution. In kind it is cell-based. The note with it: ATCC27853. The protocol: as §1, §2, §3, §4
Series [10] concerns Klebsiella pneumoniae ATCC 13883. Put plainly: MIC by broth microdilution. In kind it is cell-based. The note with it: ATCC13883. Here is the method:
as §1, §2, §3, §4

Series [11] has as its system Staphylococcus epidermidis 533. Put plainly: MIC by broth microdilution. Type of series: cell-based. The protocol:
as §1, §2, §3, §4

The test system of series [12] is Salmonella cholerasuis ATCC 14028. In words: MIC by broth microdilution. In kind it is cell-based. The note with it: ATCC14028. The protocol:
as §1, §2, §3, §4

For series [13], the system named is Staphylococcus aureus ATCC 700699. In words: MIC by broth microdilution. The note with it: ATCC700699. Type of series: cell-based. The protocol: as §1, §2, §3, §4
Series [14] relates to Proteus vulgaris ATCC 13315. Put plainly: MIC by broth microdilution. In kind it is cell-based. To be noted: ATCC13315. The protocol: as §1, §2, §3, §4
Series [15] has as its system Staphylococcus aureus 100KC. Put plainly: MIC by broth microdilution. The note with it: Staphylococcus aureus 100KC (MRSA). In kind it is cell-based. The protocol: as §1, §2, §3, §4
A further series concerns Gram-positive bacteria. Put plainly: MIC against Gram-positive bacteria. Type of series: cell-based. The protocol: as §1, §5

As to `C[C@@H]1[C@H](O)[C@@H](C)/C=C/C=C/C=C/C=C/C=C/C=C/C=C/[C@H](O[C@@H]2O[C@H](C)[C@@H](O)[C@H](N)[C@@H]2O)C[C@@H]2O[C@](O)(C[C@@H](O)C[C@@H](O)[C@H](O)CC[C@@H](O)C[C@@H](O)CC(=O)O[C@H]1C)C[C@H](O)[C@H]2C(=O)O` [Amphotericin B, amphotericin B, reference compound], in series [1], the half-inhibitory concentration (IC50) at 72 h amounted to 0.7 µg/mL (≈ 0.758 µM). Further, the MIC in series [2] and in series [3] was 1 µg/mL (≈ 1.08 µM) throughout.

Turning to `CCCn1cc([C+](c2cn(CCC)c3ccccc23)c2cn(CCC)c3ccccc23)c2ccccc21.[Cl-]` [Compound 4, tris(1-propyl-1H-indol-3-yl) methylium chloride], inhibition in series [1] was half-maximal at 0.07 µg/mL (IC50 at 72 h). The MIC in series [2] was determined as 2 µg/mL; in [3], 1 µg/mL; in [4] it was 2 µg/mL; in series [5] it was 32 µg/mL; in the series with Enterococcus faecium 569, 1 µg/mL; in series [6], 0.25 µg/mL. The minimum inhibitory concentration (MIC) in series [7] is 0.25 µg/mL; in series [8], 0.5 µg/mL; in the series with Staphylococcus aureus 5 it was 0.5 µg/mL; against Staphylococcus aureus 10, 0.25 µg/mL; in series [9], 64 µg/mL; in [10], greater than 64 µg/mL. The minimal inhibitory concentration (MIC) in series [11] stood at 0.13 µg/mL; in series [12], 32 µg/mL; in series [13], 0.25 µg/mL; in series [14] it was 1 µg/mL; in [15] it was 0.5 µg/mL; in the series on Gram-positive bacteria, 0.25 µg/mL.
